Measured values from patent US10487313B2, “Efficient induction of definitive endoderm from pluripotent stem cells” (Novo Nordisk A/S, priority 2011, dated 2019).
Entries after “also recorded” stand apart in the source; their conditions may differ.

What was measured:
[1] = tested on: SA121 hES and chIPS4 iPS cells; assay: Quantitative real-time PCR of PS and DE markers (Brachyury, SOX17) during DE induction; type: cell-based, human
Description: Human embryonic stem (hES) cells SA121 and chIPS4 (Cellartis) were grown on human fibronectin (Sigma) in DEF culture media (Cellartis) with 30 ng/ml bFGF (Invitrogen) and 10 ng/ml Noggin (Peprotech) in 6-96 well plates. Cells were single cell passaged with Rock inhibitor Y-27632 (Calbiochem) and seeded at a density of 40000 cells/cm2 for experiments. Experiments were initiated 4 d after passage.
Confluent cultures were washed once in RPMI1640 (Invitrogen) before 24 hour pre-treatment with 0,5-7μM CHIR99021 (Stemgent) in RPMI. Control cells were left untreated in RPMI and D'Amour cells were either left in RPMI or treated with AA (Peprotech)+Wnt3a (R&D Systems) without pre-treatment depending on experimental setup.
After 24 hours, pretreated and control cells were washed once with RPMI before adding 100 ng/ml AA in RPMI. D'Amour cells were also treated with 100 ng/ml AA but with 0,2% FBS instead of B27. 24 h later, 2% B27 (Invitrogen) was added to the AA media for 2-3 d. Control cells were treated with B27 to prevent cell death and D'Amour cells with 2% FBS according to published protocol. Media was changed every day.
RNA samples were collected after 24 h pre-treatment (D1), after 1 day of AA treatment (D2) and after 1-2 d of AA+B27 treatment (D3-4). Total RNA was extracted with the Rneasy Plus Mini kit (Qiagen) and quantitative real-time PCR was performed using the StepOnePLus system (Applied Biosystems).
Undifferentiated SA121 hES and chIPS4 iPS cells in DEF media (DO) were cultured either in RPMI without CHIR (Ctrl D1) or treated for 24 h with CHIR in RPMI (CHIR D1). The cells were then washed to ensure absence of CHIR and then both conditions were treated with 1 d AA (Ctrl and CHIR d2). […] T fold inductions after 24 h CHIR treatment spanned between 500-100000 compared to undifferentiated cells (d0). T protein levels were also confirmed with ICC (FIG. 2C).
The efficiency levels for both T and SOX17 were highly robust (n>60) and confirmed with IHC and SOX17 quantifications (FIG. 2C and Table 2.). […] SOX17 expression peaked already after one day of AA treatment when cells were subjected to CHIR for 24 h before AA induction.
hES SA121 and ChIPS4 cells were treated with either CHIR (3 μM), BIO (0.5 μM), Wnt3a (200 ng/ml) or AA alone (100 ng/ml) for 24 h prior to AA addition to show CHIR specificity (d1). Additionally, D'Amour (protocol as described in Kroon et al 2008) was tested in parallel.
Chir was titrated at concentrations between 1-7 uM and analyzed after 24 h Chir treatment (D1) and after 2 d of following AA treatment (D3).

[2] = tested on: hES SA121 cells; assay: OCT4 and SOX17 protein ICC quantification during DE induction, DEF culture system; type: cell-based, human; details: CHIR 3 μM D1 then Activin A D2-3, or D'Amour protocol
Description: Human embryonic stem (hES) cells SA121 and […]) were grown on human fibronectin (Sigma) in DEF culture media (Cellartis) with 30 ng/ml bFGF (Invitrogen) and 10 ng/ml Noggin (Peprotech) in 6-96 well plates. Cells were single cell passaged with Rock inhibitor Y-27632 (Calbiochem) and seeded at a density of 40000 cells/cm2 for experiments. Experiments were initiated 4 d after passage. Confluent cultures were washed once in RPMI1640 (Invitrogen) before 24 hour pre-treatment with 0,5-7μM CHIR99021 (Stemgent) in RPMI. Control cells were left untreated in RPMI and D'Amour cells were either left in RPMI or treated with AA (Peprotech)+Wnt3a (R&D Systems) without pre-treatment depending on experimental setup. After 24 hours, pretreated and control cells were washed once with RPMI before adding 100 ng/ml AA in RPMI. D'Amour cells were also treated with 100 ng/ml AA but with 0,2% FBS instead of B27. 24 h later, 2% B27 (Invitrogen) was added to the AA media for 2-3 d. Control cells were treated with B27 to prevent cell death and D'Amour cells with 2% FBS according to published protocol. Media was changed every day. • Day 1: Cells were washed carefully in prewarmed (37° C.) RPMI before starting the differentiation. Day1 medium was premixed (CHIR 3 μM in prewarmed RPMI+PEST) and gently added to cell culture. Volumes were adjusted according to plate formats. • Day 2: Cells were washed carefully in prewarmed (37° C.) RPMI before media change. Day2 medium was premixed (100 ng/ml Activin A in prewarmed RPMI+0.1% PEST) and gently added to cell culture. • Day 3: Day3&4 mediums were premixed (100 ng/ml Activin A and 2% B27 in prewarmed RPMI+0.1% PEST) and gently added to cell culture. • Day 4: DE was harvested or reseeded for further differentiation. Cells were checked under the microscope every day. Cells were washed in PBS+/+ and fixed in 4% formaldehyde for 30 min (10% formaline, VWR). The cells were then washed again three times in PBS and left in PBS (4° C.) until staining. Fixed cells were washed with PBS once, then permeabilized with 0.5% Triton X-100 in PBS for 6 min, washed in PBS and blocked with TNB buffer (0.1 M Tris-HCL pH 7.5, 0.15 M NaCl, 0.5% Blocking Reagent (Perkin Elmer)) for 30 min. Primary antibodies (goat-anti-SOX17 (AF1924, RnD Systems); goat-anti-Brachyury (AF2085, RnD Systems); mouse-anti-OCT4 (sc5279, SantaCruz Biotechnology); goat-anti-PDX1 (AB47383, Abcam)) were added in 0.1% TritonX-100+PBS for 1 h in RT or 4° C. O/N. After a thorough washing step in PBS, secondary antibodies were added together with DAPI in 0.1% Triton X-100+PBS for 45 min at RT, washed thoroughly in PBS and left in PBS until photodocumentation.

[3] = 24 h CHIR (2-7 μM) in RPMI-1640, then AA containing medium

For `Cc1c[nH]c(-c2cnc(NCCNc3ccc(C#N)cn3)nc2-c2ccc(Cl)cc2Cl)n1` [CHIR, CHIR99021], which “time of SOX17 mRNA expression peak” value [1, 3] is on record?
Its value is 2 days.

What about the “time of SOX17 protein expression peak” value [1, 3] of the same compound?
Its value is 3 to 4 days.

And the Sox17 expression ([1]; CHIR 1 uM, 2 d after AA treatment (D3))?
The Sox17 expression was “significantly lower”.

And the Brachyury induction ([1]; CHIR 3 uM, after 24 h treatment (D1))?
Its Brachyury induction is “significantly seen; also recorded: significantly upregulated”.

What about the “DE induction after subsequent AA stimulation” value ([1]; CHIR concentrations below 2 μM, after 72 hrs) of the same compound?
Its value is “not induced”.

And the “Brachyury (T) fold induction compared to undifferentiated cells” value ([1]; after 24 h CHIR treatment (D1), n>60)?
Its value is 500-100000 fold.

And the “OCT4 ICC % positive cells” value ([2]; SA121, D1)?
Its value is 97.7%.

What about the “SOX17 ICC % positive cells” value ([2]; SA121, D1) of the same compound?
Its value is 0%.

And the “OCT4 ICC % positive cells” value ([2]; SA121, D2)?
The value was 2.4%.

And the “SOX17 ICC % positive cells” value ([2]; SA121, D2)?
Its value is 72.1%.

And the “OCT4 ICC % positive cells” value ([2]; SA121, D3)?
The value was 0.2%.

What about the “SOX17 ICC % positive cells” value ([2]; SA121, D3) of the same compound?
The value was 93.1%.
